Data from the supplement of paper PMC10307832.

Assays:
Assay in all cases: relative viability (nuclei count vs DMSO), 5 days (fraction); higher = more cells survive
[1] = compound: OCc1c[nH]c2ccccc12 [Indole-3-carbinol] + CC(=O)Nc1cccc(-n2c(=O)n(C3CC3)c(=O)c3c(Nc4ccc(I)cc4F)n(C)c(=O)c(C)c32)c1 [Trametinib] (partner 0.02 µM)
How it was run: (§1)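 Lung cancer cell lines in 1536-well plates were dosed by pin tool the day after seeding, either with one drug alone or with a fixed anchor-drug dose plus five library-drug doses (not always all listed) in √10 steps. After 5 days, cells were fixed and their nuclei stained in one step (final 0.05% Triton X-100, 1% formaldehyde, 1 ug/ml Hoechst), then counted on 4× images. Relative viability is the nuclei count in treated wells divided by that in vehicle wells. Values are medians of duplicate plates.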

[2] = compound: OCc1c[nH]c2ccccc12 [Indole-3-carbinol] + CC1(C)CCC(c2ccc(Cl)cc2)=C(CN2CCN(c3ccc(C(=O)NS(=O)(=O)c4ccc(N[C@H](CCN5CCOCC5)CSc5ccccc5)c(S(=O)(=O)C(F)(F)F)c4)cc3)CC2)C1 [Navitoclax] (partner 0.5 µM)
How it was run: as §1

[3] = compound: OCc1c[nH]c2ccccc12 [Indole-3-carbinol] + COc1cccc2cc(-c3nc([C@H]4CC[C@H](C(=O)O)CC4)n4ncnc(N)c34)[nH]c12 [OSI-027] (partner 0.5 µM)
How it was run: as §1

[4] = compound: OCc1c[nH]c2ccccc12 [Indole-3-carbinol] + Cc1cc(Nc2cc(N3CCN(C)CC3)nc(Sc3ccc(NC(=O)C4CC4)cc3)n2)n[nH]1 [Tozasertib] (partner 0.1 µM)
How it was run: as §1

[5] = compound: OCc1c[nH]c2ccccc12 [Indole-3-carbinol] + O=C(c1cc(Cc2n[nH]c(=O)c3ccccc23)ccc1F)N1CCN(C(=O)C2CC2)CC1 [Olaparib] (partner 8 µM)
How it was run: as §1

Cell Line	relative viability ([1]; first compound 0.253 µM)	relative viability ([1]; first compound 0.8 µM)	relative viability ([1]; first compound 2.53 µM)	relative viability ([1]; first compound 8 µM)	relative viability ([2]; first compound 0.253 µM)	relative viability ([2]; first compound 0.8 µM)	relative viability ([2]; first compound 2.53 µM)	relative viability ([2]; first compound 8 µM)	relative viability ([3]; first compound 0.253 µM)	relative viability ([3]; first compound 0.8 µM)	relative viability ([3]; first compound 2.53 µM)	relative viability ([3]; first compound 8 µM)	relative viability ([4]; first compound 0.253 µM)	relative viability ([4]; first compound 0.8 µM)	relative viability ([4]; first compound 2.53 µM)	relative viability ([4]; first compound 8 µM)	relative viability ([5]; first compound 0.253 µM)	relative viability ([5]; first compound 0.8 µM)	relative viability ([5]; first compound 2.53 µM)	relative viability ([5]; first compound 8 µM)
201T	0.704	0.705	0.697	0.692	1.22	1.15	1.18	1.2	0.895	0.765	0.748	0.718	0.958	0.978	1.02	0.969	0.849	0.856	0.843	0.848
A549					1.16	1.29	1.22	1.17									0.458	0.413	0.356	0.322
A-427	0.713	0.717	0.76	0.685	0.963	1.05	0.97	0.947	0.372	0.444	0.566	0.537	0.193	0.226	0.226	0.224	0.661	0.714	0.788	0.728
ABC-1									0.381	0.511	0.565	0.565	0.186	0.214	0.164	0.158	0.855	0.97	0.87	0.761
BEN	0.995	1.14	1.03	0.936	0.0839	0.0691	0.0796	0.048	0.275	0.271	0.33	0.331	0.463		0.479	0.554	1.09	1.05	1.12	1.06
CAL-12T	0.361	0.411	0.31	0.295	1.21	1.48	1.16	0.993	0.709	0.775	0.62	0.623	0.291	0.351	0.335	0.278	0.672	0.834	0.717	0.66
COR-L23	0.619	0.557	0.703	0.549	1.17	1.07	0.976	0.797	0.66	0.718	0.854	0.628	0.201	0.243	0.296	0.185	0.37	0.411	0.372	0.31
COR-L 105	0.407	0.405	0.473	0.428	0.718	0.701	0.821	0.631	0.751	0.586	0.73	0.785	0.366	0.385	0.378	0.347	0.642	0.655	0.713	0.685
ChaGo-K-1	0.91	0.905	0.832	0.885	0.805	0.962	0.913	0.966	0.56	0.543	0.605	0.567	0.218	0.219	0.231	0.211	0.427	0.45	0.415	0.387
EKVX	0.298	0.344	0.297	0.313	1.13	1.01	0.983	0.873	0.719	0.74	0.731	0.633	0.423	0.428	0.421	0.383	0.797	0.938	0.851	0.85
EMC-BAC-2	0.789	0.918	0.879	0.849	1.16	1.21	1.11	1.04	0.32	0.356	0.386	0.359	0.267	0.309	0.25	0.259	0.493	0.51	0.504	0.467
EPLC-272H	0.293	0.268	0.296	0.275	1.32	1.08	1.26	0.988	0.252	0.299	0.333	0.218	0.33	0.267	0.369	0.396	0.894	0.993	0.627	0.914
H3255	0.515	0.643	0.57	0.589	0.643	0.523	0.54	0.467	0.518	0.625	0.543	0.545	0.691	0.599	0.635	0.58	0.589	0.553	0.617	0.552
HARA	0.673	0.834	0.818	0.652	1.18	1.17	1.14	1.16	0.572	0.436	0.597	0.556	0.119	0.125	0.12	0.179	0.568	0.77	0.331	0.701
HCC-15	0.414	0.458	0.391	0.395	0.692	0.722	0.66	0.71	0.681	0.79	0.676	0.701	0.348	0.52	0.495	0.398	0.722	0.747	0.684	0.685
HCC-44	1.05	1.13	1.09	1.04	1.05	0.986	0.941	0.859	0.488	0.412	0.484	0.525	0.97	0.575	1.11	0.922	1	1.02	0.966	0.962
HCC-78	0.717	0.644	0.793	0.77	0.925	0.553	0.776	0.719	0.363	0.359	0.39	0.346	0.301	0.454	0.569	0.415	0.958	0.758	0.798	0.819
HCC-366	0.358	0.322	0.422	0.304	1.03	1.02	0.986	0.948	0.954	0.777	0.898	0.881	0.103	0.125	0.0939	0.196	0.459	0.386	0.35	0.309

Cell Line	relative viability ([1]; first compound 0.253 µM)	relative viability ([1]; first compound 0.8 µM)	relative viability ([1]; first compound 2.53 µM)	relative viability ([1]; first compound 8 µM)	relative viability ([2]; first compound 0.253 µM)	relative viability ([2]; first compound 0.8 µM)	relative viability ([2]; first compound 2.53 µM)	relative viability ([2]; first compound 8 µM)	relative viability ([3]; first compound 0.253 µM)	relative viability ([3]; first compound 0.8 µM)	relative viability ([3]; first compound 2.53 µM)	relative viability ([3]; first compound 8 µM)	relative viability ([4]; first compound 0.253 µM)	relative viability ([4]; first compound 0.8 µM)	relative viability ([4]; first compound 2.53 µM)	relative viability ([4]; first compound 8 µM)	relative viability ([5]; first compound 0.253 µM)	relative viability ([5]; first compound 0.8 µM)	relative viability ([5]; first compound 2.53 µM)	relative viability ([5]; first compound 8 µM)
HCC-827	0.516	0.542	0.505	0.533	1.04	1.09	1.05	0.947	0.751	0.659	0.723	0.808	0.4	0.398	0.429	0.383	0.67	0.621	0.719	0.61
HOP-62	0.348	0.373	0.358	0.32	1.09	0.817	1.28	0.851	0.802	0.796	0.791	0.789	0.365	0.432	0.391	0.332	0.541	0.368	0.525	0.399
IA-LM					0.811	0.896	0.858	0.732									0.89	0.815	0.868	0.752
LC-2-ad	0.893	0.879	0.897	0.869	0.644	0.553	0.376	0.399	0.888	0.776	0.826	0.787	0.404	0.417	0.537	0.468	0.768	0.737	0.696	0.656
LCLC-97TM1	0.215	0.215	0.178	0.23	0.408	0.387	0.499	0.465	0.381	0.527	0.386	0.668	0.324	0.299	0.235	0.251	0.38	0.552	0.489	0.265
LCLC-103H	0.701	0.614	0.651	0.571					0.452	0.513	0.428	0.431	0.499	0.554	0.538	0.433	0.732	0.734	0.763	0.633
LK-2	0.674	0.538	0.812	0.732	0.777	0.769	1.1	0.821	0.198	0.145	0.189	0.215	0.162	0.167	0.194	0.17	0.877	0.675	0.808	0.713
LOU-NH91	0.81	0.747	0.788	0.802	0.71	0.599	0.673	0.74	0.747	0.671	0.722	0.689	0.65	0.693	0.749	0.634	0.916	0.872	0.974	0.893
LU99A	0.5	0.517	0.521	0.545	0.802	0.847	0.832	0.73	0.307	0.355	0.291	0.284	0.224	0.317	0.315	0.257	0.256	0.299	0.23	0.268
LXF-289	0.678	0.693	0.651	0.656	0.966	0.96	0.904	0.927	0.838	0.855	0.783	0.754	0.228	0.21	0.289	0.199	1.24	1.09	1.09	1.08
NCI-H358	0.119	0.122	0.139	0.121					0.792	0.734	0.859	0.64	0.097	0.131	0.113	0.0974	0.619	0.659	0.717	0.569
NCI-H522	0.794	0.798	0.839	0.749					0.646	0.821	0.685	0.836	0.63	0.525	0.567	0.538	0.657	0.564	0.663	0.608
NCI-H650	1.13	0.958	1.04	0.956					0.559	0.512	0.482	0.482	0.743	0.767	0.805	0.681	0.395	0.403	0.418	0.359
NCI-H661	0.526	0.564	0.606	0.58					0.644	0.725	0.784	0.704	0.335	0.334	0.359	0.348	0.775	0.771	0.866	0.742
NCI-H1563									0.733	0.748	0.747	0.791								
NCI-H1703					1.01	1.48	1.47	1.18									0.389	0.557	0.389	0.553
NCI-H1792	0.436	0.369	0.432	0.379	0.655	0.619	0.737	0.644	0.733	0.695	0.726	0.692					0.612	0.532	0.553	0.3
SW 900	0.866	0.867	0.82	0.992					0.574	0.706	0.592	0.599	0.548	0.726	0.616	0.548	0.983	1.37	0.883	0.899
